# According to patent US11065269B1, “Method of using astaxanthin for the treatment of diseases, and more particularly, the treatment of cancer” (priority 2018, dated 2021):
# Experiments:
# [1] = relative to betacarotene; cited from earlier work
# [2] = increasing astaxanthin levels in the diet (experiments conducted with the invention); type: in vivo
# Description: In experiments conducted with the present invention, it is been shown that increasing astaxanthin levels in the diet can be used as a pre-cancer, cancer and anti-inflammatory prophylactic at levels up to 400 mg per day.
# [3] = oral; cited from earlier work
# [4] = cited from earlier work
smiles,measurement,setting,value
CC1=C(/C=C/C(C)=C/C=C/C(C)=C/C=C/C=C(C)/C=C/C=C(C)/C=C/C2=C(C)C(=O)[C@@H](O)CC2(C)C)C(C)(C)C[C@H](O)C1=O [astaxanthin],times more reactive as an antioxidant than betacarotene,[1],400 times
same,side effects,[2]; dietary levels up to 400 mg per day,No discernible side effects
same,side effects or skin color changes,[2]; treatment of greater than 50 mg per day,No side effects or skin color changes were observed
same,feces colour,"[2]; up to 400 mg per day, from unabsorbed astaxanthin",some decolorization of feces
same,anti-inflammatory effect and pain reduction associated with arthritis,[2]; within four weeks of treatment of greater than 50 mg per day,Anti-inflammatory and pain reduction associated with arthritis were noted
same,toxic side effects,[3],No toxic side effects have been observed
same,"singlet oxygen quenching, times stronger than CoQ10",[4]; relative to CoQ10,800 times
same,"singlet oxygen quenching, times stronger than vitamin C",[4]; relative to vitamin C,6000 times
same,"singlet oxygen quenching, times stronger than vitamin E",[4]; relative to vitamin E,550 times
